Experimental data reported in US9162992B2, “Compounds and compositions for treatment of breathing control disorders or diseases” (GALLEON PHARMACEUTICALS, INC., priority 2010, dated 2015).

Tests used:
[1] = Stability as a function of pH 2-6 (1 mg/mL, 0.25 mg/mL at pH 6; 10 mM citric acid and glycine); type: physicochemical; set-up: growth in impurities / Assay: unit not given here; conditions: for Impurities: in %
Procedure: Buffer solutions containing ca. 10 mM each of citric acid and glycine in the pH range 2-6 were prepared by titrating 250 mL of a single stock containing both buffer agents with 1N NaOH/1N HCl and removing 50 mL aliquots at predetermined pH values. XXXVI solutions at 1 mg/mL were prepared in buffers of pH 2-5 by dissolving ˜25 mg of XXXVI in ˜23 mL of a given buffer, adjusting the pH to the target and making up the volume to 25.0 mL in a volumetric flask. (XXXVI) solution at pH 6 was prepared similarly, but at a lower drug concentration of 0.25 mg/mL using 6.68 mg of (XXXVI).
Each of the buffered XXXV solutions was filtered through a 0.2 μm polyether sulfone syringe filter into a volumetric flask, which had been previously rinsed with 70% ethanol and dried in a laminar flow hood. Following filtration, each buffered (XXXV) solution was split into 10 aliquots (9 aliquots of 2.5 mL each and 1 aliquot of 2 mL) in 5 mL serum vials previously rinsed with 70% ethanol and dried in a laminar flow hood. Filtration and preparation of aliquots were performed in a laminar flow hood. The 2 mL aliquot of each buffered (XXXV) solution was submitted for T0 analysis (HPLC assay and related substances).
Of the nine 2.5 mL aliquots, three aliquots were stored at each 40° C. and 60° C., two aliquots were stored at 25° C. and one aliquot was stored at −70° C. Samples stored at 40° C. and at 60° C. were evaluated for physical appearance, pH, assay and related substances after 1 week, 2 weeks and 4 weeks of storage. Samples at 25° C. and −70° C. served as controls to be analyzed if necessary.

[2] = tested on: morphine-induced respiratory depression; assay: Effects of morphine and compound on arterial blood gases in the rat; type: in vivo; conditions: for PaCO2 (% reversal) / PaO2 (% reversal) / SaO2 (% reversal) / pH (% reversal): morphine 10 mg/kg
Procedure: Rats with pre-cannulated jugular vein and femoral arterial catheters (for administering drugs and obtaining blood samples respectively) were obtained from Harlan laboratories and kept at the animal facility at Galleon Pharmaceuticals until the experimental procedures. Each animal was dosed with morphine sulfate (10 mg/kg), dissolved in saline at a concentration of 10 mg/mL, via injection into the jugular vein over a period of 20 seconds with a 20 second flush of 0.9% NaCl saline. Prior to morphine administration, two 250 μL samples of arterial blood were aspirated from the femoral artery into a pre-heparinized syringe. The samples were analyzed on Radiometer's ABL Flex 800, where pO2, pCO2, pH, SaO2 and other parameters were recorded. Aspirated volumes of arterial blood were replaced by room temperature sterile saline (˜300 μL) slowly flushed back into the femoral arterial catheter of the rodent to prevent hypovolemia. Morphine was then administered and 2 minutes later another blood sample was taken.
The infusion started at t=15 minutes and ended at t=35 minutes. Arterial blood gas analysis occurred at time points t=12, 18, 25, 35, 40, 45, and 50 minutes.

For `CCCNc1nc(NCCC)nc(N(C)OC)n1` [XXXV, N-(4,6-Bis-n-propylamino-[1,3,5]triazin-2-yl)-N,O-dimethyl-hydroxylamine], the physical appearance ([1]; all samples, up to 4 weeks at 40° C. and 60° C.) was “remained clear, colorless and particle free”, the “stability at pH 2 compared to remaining pH values” ([1]; assay and impurities data) was “significantly less stable at pH 2” and the growth in impurities ([1]; pH 3-6, 40° C. and 60° C.) was greater than 0.2. The Assay ([1]; target pH 2, 40° C. 1 wk) was 0.997, the pH ([1]; target pH 2, 40° C. 1 wk) was 2.02 and the Impurities ([1]; target pH 2, 40° C. 1 wk) was 0.58. It also gave an Assay ([1]; target pH 2, 40° C. 2 wk) of 0.975, a pH ([1]; target pH 2, 40° C. 2 wk) of 1.98 and an Impurities ([1]; target pH 2, 40° C. 2 wk) of 1.48. It also gave an Assay ([1]; target pH 2, 40° C. 4 wk) of 0.970, a pH ([1]; target pH 2, 40° C. 4 wk) of 2.00 and an Impurities ([1]; target pH 2, 40° C. 4 wk) of 2.49. The Assay ([1]; target pH 2, 60° C. 1 wk) was 0.929, the pH ([1]; target pH 2, 60° C. 1 wk) was 2.00 and the Impurities ([1]; target pH 2, 60° C. 1 wk) was 3.83. The Assay ([1]; target pH 2, 60° C. 2 wk) was 0.754, the pH ([1]; target pH 2, 60° C. 2 wk) was 1.99 and the Impurities ([1]; target pH 2, 60° C. 2 wk) was 9.89. For the same molecule, the Assay ([1]; target pH 2, 60° C. 4 wk) was 0.754, the pH ([1]; target pH 2, 60° C. 4 wk) was 2.01 and the Impurities ([1]; target pH 2, 60° C. 4 wk) was 14.34. It also gave an Assay ([1]; target pH 2, initial) of 1.02, a pH ([1]; target pH 2, initial) of 1.96 and an Assay ([1]; target pH 3, 40° C. 1 wk) of 0.984. The pH ([1]; target pH 3, 40° C. 1 wk) was 3.05, the Assay ([1]; target pH 3, 40° C. 2 wk) was 0.987 and the pH ([1]; target pH 3, 40° C. 2 wk) was 3.05. For the same molecule, the Impurities ([1]; target pH 3, 40° C. 2 wk) was 0.19, the Assay ([1]; target pH 3, 40° C. 4 wk) was 0.991 and the pH ([1]; target pH 3, 40° C. 4 wk) was 3.06. For the same molecule, the Impurities ([1]; target pH 3, 40° C. 4 wk) was 0.41, the Assay ([1]; target pH 3, 60° C. 1 wk) was 0.971 and the pH ([1]; target pH 3, 60° C. 1 wk) was 3.07. It also gave an Impurities ([1]; target pH 3, 60° C. 1 wk) of 0.71, an Assay ([1]; target pH 3, 60° C. 2 wk) of 0.952 and a pH ([1]; target pH 3, 60° C. 2 wk) of 3.03. The Impurities ([1]; target pH 3, 60° C. 2 wk) was 1.20, the Assay ([1]; target pH 3, 60° C. 4 wk) was 0.952 and the pH ([1]; target pH 3, 60° C. 4 wk) was 3.07. For the same molecule, the Impurities ([1]; target pH 3, 60° C. 4 wk) was 2.19, the Assay ([1]; target pH 3, initial) was 0.984 and the pH ([1]; target pH 3, initial) was 3.02. It also gave an Assay ([1]; target pH 4, 40° C. 1 wk) of 0.999, a pH ([1]; target pH 4, 40° C. 1 wk) of 3.94 and an Assay ([1]; target pH 4, 40° C. 2 wk) of 1.006. It also gave a pH ([1]; target pH 4, 40° C. 2 wk) of 3.96, an Impurities ([1]; target pH 4, 40° C. 2 wk) of 0.17 and an Assay ([1]; target pH 4, 40° C. 4 wk) of 1.012. The pH ([1]; target pH 4, 40° C. 4 wk) was 3.96, the Impurities ([1]; target pH 4, 40° C. 4 wk) was 0.22 and the Assay ([1]; target pH 4, 60° C. 1 wk) was 0.992. For the same molecule, the pH ([1]; target pH 4, 60° C. 1 wk) was 3.94, the Assay ([1]; target pH 4, 60° C. 2 wk) was 0.979 and the pH ([1]; target pH 4, 60° C. 2 wk) was 3.96. For the same molecule, the Impurities ([1]; target pH 4, 60° C. 2 wk) was 0.52, the Assay ([1]; target pH 4, 60° C. 4 wk) was 0.979 and the pH ([1]; target pH 4, 60° C. 4 wk) was 3.97. The Impurities ([1]; target pH 4, 60° C. 4 wk) was 1.02, the Assay ([1]; target pH 4, initial) was 1.01 and the pH ([1]; target pH 4, initial) was 4.00. It also gave an Assay ([1]; target pH 5, 40° C. 1 wk) of 0.989, a pH ([1]; target pH 5, 40° C. 1 wk) of 4.90 and an Assay ([1]; target pH 5, 40° C. 2 wk) of 0.992. The pH ([1]; target pH 5, 40° C. 2 wk) was 4.95, the Impurities ([1]; target pH 5, 40° C. 2 wk) was 0.26 and the Assay ([1]; target pH 5, 40° C. 4 wk) was 0.977. The pH ([1]; target pH 5, 40° C. 4 wk) was 4.97, the Assay ([1]; target pH 5, 60° C. 1 wk) was 0.977 and the pH ([1]; target pH 5, 60° C. 1 wk) was 4.92. For the same molecule, the Assay ([1]; target pH 5, 60° C. 2 wk) was 0.947, the pH ([1]; target pH 5, 60° C. 2 wk) was 4.93 and the Impurities ([1]; target pH 5, 60° C. 2 wk) was 0.62. For the same molecule, the Assay ([1]; target pH 5, 60° C. 4 wk) was 0.947, the pH ([1]; target pH 5, 60° C. 4 wk) was 4.98 and the Impurities ([1]; target pH 5, 60° C. 4 wk) was 1.10. The Assay ([1]; target pH 5, initial) was 1.01, the pH ([1]; target pH 5, initial) was 5.03 and the Assay ([1]; target pH 6, 40° C. 1 wk) was 0.257. The pH ([1]; target pH 6, 40° C. 1 wk) was 5.88, the Assay ([1]; target pH 6, 40° C. 2 wk) was 0.253 and the pH ([1]; target pH 6, 40° C. 2 wk) was 6.02. It also gave an Impurities ([1]; target pH 6, 40° C. 2 wk) of 0.25, an Assay ([1]; target pH 6, 40° C. 4 wk) of 0.251 and a pH ([1]; target pH 6, 40° C. 4 wk) of 5.98. The Impurities ([1]; target pH 6, 40° C. 4 wk) was 0.28, the Assay ([1]; target pH 6, 60° C. 1 wk) was 0.247 and the pH ([1]; target pH 6, 60° C. 1 wk) was 5.87. The Impurities ([1]; target pH 6, 60° C. 1 wk) was 0.56, the Assay ([1]; target pH 6, 60° C. 2 wk) was 0.234 and the pH ([1]; target pH 6, 60° C. 2 wk) was 6.03. It also gave an Impurities ([1]; target pH 6, 60° C. 2 wk) of 0.87, an Assay ([1]; target pH 6, 60° C. 4 wk) of 0.234 and a pH ([1]; target pH 6, 60° C. 4 wk) of 6.01. The Impurities ([1]; target pH 6, 60° C. 4 wk) was 1.65, the Assay ([1]; target pH 6, initial) was 0.260 and the pH ([1]; target pH 6, initial) was 6.05.

With `CCCNc1nc(NCCC)nc(N(C)OC)n1.O=S(=O)(O)O` [XXXVI, N-(4,6-Bis-n-propylamino-[1,3,5]triazin-2-yl)-N,O-dimethyl-hydroxylamine hydrogen sulfate] the “arterial blood gases, reversal of opioid-induced respiratory depression” value ([2]; infusion 0.1, 0.3 and 1.0 mg/kg/min, vs vehicle) was “significantly reverses opioid-induced respiratory depression”, the “PaCO2 (% reversal)” value ([2]; infusion 0.03 mg/kg/min) was 18 % reversal and the “PaO2 (% reversal)” value ([2]; infusion 0.03 mg/kg/min) was −2.0 % reversal. For the same molecule, the “SaO2 (% reversal)” value ([2]; infusion 0.03 mg/kg/min) was 42 % reversal, the “pH (% reversal)” value ([2]; infusion 0.03 mg/kg/min) was 20 % reversal and the “PaCO2 (% reversal)” value ([2]; infusion 0.1 mg/kg/min) was 47 % reversal. For the same molecule, the “PaO2 (% reversal)” value ([2]; infusion 0.1 mg/kg/min) was 16 % reversal, the “SaO2 (% reversal)” value ([2]; infusion 0.1 mg/kg/min) was 51 % reversal and the “pH (% reversal)” value ([2]; infusion 0.1 mg/kg/min) was 37 % reversal. The “PaCO2 (% reversal)” value ([2]; infusion 0.3 mg/kg/min) was 72 % reversal, the “PaO2 (% reversal)” value ([2]; infusion 0.3 mg/kg/min) was −16 % reversal and the “SaO2 (% reversal)” value ([2]; infusion 0.3 mg/kg/min) was 43 % reversal. The “pH (% reversal)” value ([2]; infusion 0.3 mg/kg/min) was 55 % reversal, the “PaCO2 (% reversal)” value ([2]; infusion 1 mg/kg/min) was 94 % reversal and the “PaO2 (% reversal)” value ([2]; infusion 1 mg/kg/min) was 26 % reversal. The “SaO2 (% reversal)” value ([2]; infusion 1 mg/kg/min) was 62 % reversal and the “pH (% reversal)” value ([2]; infusion 1 mg/kg/min) was 60 % reversal.
